# Where two headings read alike, the source gives them in different places.
# Columns and labels:
# NTR1 binding sites = experiment: [125I]NT binding in PAG, rest of brain and small intestine after i.p. AS-NTR1-PNA (Example 8); assay type: in vivo, rat; conditions: for Binding (% change vs control) NT: 24 hours after i.p. injection
# [1] = test system: [125I]neurotensin binding sites (NT receptors); experiment: [125I]neurotensin binding assay, PAG and hypothalamus homogenates of treated rats; assay type: in vivo, rat; conditions: for number of receptors (mean ± SEM in fmol/mg wet wt.) / percent of control / Kd: 24 hours after single oral 10 mg/kg; for Kd: [125I]neurotensin, read-out: KD (mean ± SEM in nM)
# [2] = test system: neurotensin receptor-1 (NTR1); experiment: Hot plate test of NT-mediated anti-nociception in PNA-treated rats; assay type: in vivo, rat
# Protocol: Under an Institutional Animal Care and Use Committee approved protocol and under sterile conditions male Sprague-Dawley rats (180-200 g) were stereotaxically implanted with stainless steel guide cannulae (26 gauge) into the PAG under sodium pentobarbital anesthesia (50 mg/kg, i.p.) as described in detail elsewhere (Jensen T. S. and Yaksh T. L., Brain Res. 372:301-312 (1986) and Al-Rodhan N.R.F., Brain Res. 557:227-235 (1991)). The coordinates used for PAG cannulations are -5.6 mm posterior from bregma, 1.0 mm lateral from bregma, and 5.5 mm down from the dura. The guide cannula was pre-measured to be 5.5 mm (Plastics One, Roanoke, Va.) and the internal cannula was ordered to fit below the pedestal with a 2.0 mm projection. The guide cannula was then fixed to the skull using a stainless steel screw (⅛ inch) and cranioplastic cement. A stainless steel stilette was then placed in each guide to keep it patent and free of debris. Immediately after surgery, the animals were allowed to recover before returning them to an individual housing cage. All injections began 5-7 days after surgery.
# NTR1-PNA oligomers were injected, using a Hamilton digital syringe, into the PAG through the internal cannula, which extended 2 mm below the guide tip. The internal cannula was connected with a length of polyethylene tubing (PE-20) filled with saline solution. A small air bubble was introduced into the tubing to separate the saline from a solution containing 1.3 nmol of NTR1-PNA oligomers in artificial cerebral-spinal fluid (ACSF). The volume of the solution containing the NTR1-PNA oligomers was about 1.0 μl. The bubble was used to confirm the movement of this solution through the polyethylene tubing.
# NTR1-PNA oligomers were injected into the PAG of each rat three times, on days -4, -2, and 0. Controls included rats receiving no injections, rats receiving injections of ACSF only, and rats receiving PNA oligomers having sequence specificity for an unrelated polypeptide, the mu-1 morphine receptor (MU1R). The sequence of MU1R-PNA is 5′-[…]-3′ (SEQ ID NO: 2).
# The injection of NT in the PAG of rats produces a potent anti-nociceptive response as well as hypothermia. These responses are mediated by specific NT receptors and are not inhibited by naloxone. A very sensitive and reliable hot plate test was used to measure the anti-nociceptive effects of NT (Al-Rodhan N.R.F., Brain Res. 557:227-235 (1991)).
# NTR1-PNA, MU1R-PNA, and ACSF treated as well as untreated rats were analyzed using the hot plate test for NT. One day after the last treatment, each rat was analyzed as follows. Fifteen minutes prior to testing, a pre-drug latency measurement was made by placing the rat on a hot plate maintained at a temperature of 52±0.15° C. and recording the time elapsed before the rat licked either of its hindpaws. In addition, the temperature of the rat was taken using a thermister probe inserted 3 cm in the rectum to determine the pre-drug body temperature (BT). After making these measurement, an appropriate dose of NT (18 nmol) at a volume of about 0.5 ul was administered into the PAG as described above. Thirty minutes after administering NT, the rat was again placed on a hot plate maintained at a temperature of 52±0.15° C. and the latency between the time the rat was placed on the surface and the time it licked either of its hindpaws was measured. […] Hot plate tests were scored as the percent of maximum possible effect (% MPE) and calculated using the following equation: % MPE=[(post-drug latency−pre-drug latency)/(cut-off−pre-drug latency)]×100; where the cut-off is 30 seconds. […] This average for untreated control rats was used to set the baseline MPE value to 100. Immediately after the 30 second hot plate test, BT was taken to measure NT-induced hypothermia using a thermister probe inserted 3 cm in the rectum. […] All test situations were compared to these baseline values derived from NT responsive untreated controls. […]
# morphine binding sites = experiment: [3H]morphine binding in rest of brain and small intestine after i.p. AS-NTR1-PNA (Example 8); conditions: for Binding (% change vs control) Morphine: 24 hours after i.p. injection
substance,measurement,setting,value
"NTR1-PNA: 12-mer antisense PNA oligomer to rat NTR1 coding region, 5′-CATTGCTCAAAC-3′ (SEQ ID NO: 1) (all peptide nucleic acid (PNA))",reduction in the number of NTR1 binding sites vs untreated animals,NTR1 binding sites; PAG,35%
same,Binding (% change vs control) NT,NTR1 binding sites; PAG,−35 ± 9 % change vs control
same,Binding (% change vs control) NT,NTR1 binding sites; Rest of Brain,−40 ± 1 % change vs control
same,Binding (% change vs control) NT,NTR1 binding sites; Small Intestine,−65 ± 5 % change vs control
same,reduction in the number of NTR1 binding sites vs untreated animals,NTR1 binding sites; rest of brain,40%
same,reduction in the number of NTR1 binding sites vs untreated animals,NTR1 binding sites; small intestine,65%
same,% Control dpm's,"[1]; Hypothalamus tissue, untreated control, PNA injected into PAG",55 % Control
same,number of receptors (mean ± SEM in fmol/mg wet wt.),[1]; Hypothalamus,240 ± 30 fmol/mg wet wt.
same,percent of control,[1]; Hypothalamus,51%
same,NT binding sites reduced,"[1]; PAG and hypothalamus, 24 hours after oral 10 mg/kg",50%
same,number of receptors (mean ± SEM in fmol/mg wet wt.),[1]; PAG,140 ± 20 fmol/mg wet wt.
same,percent of control,[1]; PAG,48%
same,Kd,[1]; PAG of treated rats,8.2 ± 0.7 nM
same,Kd,[1]; hypothalamus of treated rats,7 ± 0.8 nM
same,anti-nociception score (hot plate) after NT,"[2]; 10 mg/kg intraperitoneally, NT 18 nmol into PAG 24 hours later",25 % MPE
same,time until which NT-mediated anti-nociception remained significantly reduced,"[2]; PNA injected into PAG on days -4, -2, 0",day five
same,Responsiveness: NT (anti-nociception and hypothermia),"[2]; intraperitoneal administration, Table VI",lost
same,time for responses to NT to return to baseline levels after PNA injection,"[2]; single injection 10 mg/kg, tested every 24 hours with NT",≤ 48 h
same,Binding (% change vs control) Morphine,morphine binding sites; Rest of Brain,2 ± 2 % change vs control
same,Binding (% change vs control) Morphine,morphine binding sites; Small Intestine,−7 ± 8 % change vs control
same,number of morphine binding sites compared to controls,morphine binding sites; rest of brain or small intestine,no significant difference

# — patent US6989270B1, “Using polyamide nucleic acid oligomers to engender a biological response” (Mayo Foundation for Medical Education and Research, priority 1997, dated 2006)
